Reference: patent publication US20030215529A1, “Composition and pharmaceutical preparation containing same for the treatment of herpes and related viral infections” (Dalhousie University, priority 1998, published 2003)
≈ marks a conversion by molar mass, not a printed value.

Key:
HSV-2, Strain no. 333 [1] = experiment: HSV-2 mouse vaginal infection model, survival; format: in vivo, BALB/c mice; settings: 3% Acyclovir cream
Method: (Batch no. 200205), provided by the Department of Biology, the Chinese University of Hong Kong, Hong Kong. […] Virus is Herpes simplex type II (HSV-2, Strain no. 333, batch no. 200104010), provided by the Department of Virological Diagnosis, Institution of Virology, Chinese Preventative Medical Academy. Needles for vaginal tract infection (size no. of 12) were prepared by the Department of Virological Diagnosis, Chinese Preventative Medical Academy. African green monkey kidney cells (Vero cells) were provided by the Department of Virological Diagnosis, Chinese Preventative Medical Academy. Physiological saline and cell culture medium was provided by the Department of Virological Diagnosis, Chinese Preventative Medical Academy. Inverted microscope was provided by the Department of Virological Diagnosis, Chinese Preventative Medical Academy. Carbon dioxide incubator was provided by the Department of Virological Diagnosis, Chinese Preventative Medical Academy. And other related apparatuses: provided by the Department of Virological Diagnosis, Chinese Preventative Medical Academy.
Animals: BALB/c mice, female, body weight range of 18-20 grams. Animal license no. YDHZ 01-3003, supplied by the Animal Center of the Chinese Medical Academy and Peking Union Medical College.
1. Target of the experiments: The mice could develop viral vaginitis following infection with HSV-2. […] Statistical analysis, t values and p values, was calculated in comparison with the virus control group. Efficacy of the testing samples will be evaluated on the basis of statistical calculation.
2. […] The number of animals per group was 10. Ten additional animals that were not infected with HSV-2 and received no treatment served as the uninfected control group.
Treatment began on day 3 post-infection. This was achieved by applying the cream to the vaginal tract with cotton swabs. The creams were given at a dose of 2 mg per mouse twice daily for a six-day duration. Mortality and the number of days for lethality to occur were recorded. The experiment was repeated twice. The protection rates and life span extension rates were calculated. The efficacy of testing agents were judged in comparison with the […] on the basis of the calculated t values and p values.
The survival rate and number of days for lethality to occur were recorded. The latter was expressed as the average life span in days.

HSV-1, Strain no. SM44 = experiment: HSV-1 skin lesion model in guinea pigs; format: in vivo, guinea pig; settings: for Extent of Skin Pathological Changes EPC (Mean ± SD) / Inhibition rate IR: Acyclovir cream 3 g %
Excerpt: Material. […] Virus is Herpes simplex type 1 (HSV-1, Strain no. SM44), imported from The American Type Culture Collection. The virus strain was proliferated and preserved by the Department of Virological Diagnosis, Institution of Virology, Chinese Preventative Medical Academy. “Bunched needle” refers to seven individual needles (size No. 7) bunched together as one bunch and seven bunches were put together as one “Bunched needle”. Other related apparatuses: All other apparatuses and reagents were provided by the Department of Virological Diagnosis, Chinese Preventative Medical Academy.
Animals: Guinea pigs, half male and half female, 200-250 grams (animal license no. YDHZ SCXK11-00-0006), supplied by the Animal Center of the Chinese Medical Academy and Peking Union Medical College.
HSV-1 cutaneous lesion in guinea pig. The animals were grouped in 5. Animals within each group will be the same gender and have similar body weight. The hair was removed from dorsal side of the animal and the skin was abraded with needles as described above. The entire abraded area was infected with 150 μl of HSV-1 stock suspension.
Typical herpes lesions appeared on the infected area on the 4th day of infection. The extent of pathological changes was scored as described below. […] The amount of cream given to each animal was 1.5 gram per dose twice daily for a six-day duration.
Daily records of the pathological changes infected area were made according to the following criteria:
When the skin lesions developed up to ¼ of the total area, the pathological changes were scored as 1.0-1.6;
When the skin lesions developed on 2/4 of the total area, the pathological changes were scored as 1.7-2.4;
When the skin developed on ¾ of the total area, the pathological changes were scored as 2.5-3.2;
When the skin lesions developed 4/4 of the total areas, the pathological changes were scored as 3.3-4.0;
When the skin herpes scars developed up to ¼ of the total areas, the pathological changes were scored as 0.9-1.0;
When the skin herpes scars were up to 2/4 of the total areas, the pathological changes were scored as 0.7-0.8;
When the skin herpes scars were up to ¾ of the total areas, the pathological changes were scored as 0.5-0.6;
When the skin herpes scars were up to 4/4 of the total areas, the pathological changes were scored as 0.2-0.4;
When the skin herpes scars were all detached and lesions healed, the pathological changes were scored as 0.

HSV-2, Strain no. 333 [2] = experiment: Recovery of HSV-2 from vaginal samples of infected mice (CPE on Vero cells); format: in vivo, BALB/c mice; settings: Acyclovir cream 3 g %
HSV-1 [3] = settings: Xu et al., Heterocycles 1994; cited from earlier work
HSV-induced cell fusion = settings: Srinivas et al.; cited from earlier work
[4] = test system: HSV-1 strain Delta gC2-3 (glycoprotein C deficient); experiment: Plaque reduction assay, glycoprotein C deficient HSV-1; format: cell-based, herpes simplex virus type 1; settings: strain Delta gC2-3, plaque reduction assay
[5] = test system: gC-deficient HSV-1, Delta gC2-3; experiment: Binding competition experiment, Delta gC2-3; format: cell-based, herpes simplex virus type 1; settings: mixed with virus and used immediately
Method: (§1) The anti-herpes effect of sodium heparin was further investigated by a binding competition experiment. In this experiment, 0.5 ml samples of HSV-1 (about 100 pfu) were mixed with 0.5 ml of sodium heparin at different concentrations. The mixtures were immediately used to infect Vero cells at 37° C. for 1 h. Following the incubation, the number of plaques were determined in the plaque assay. […] At 1 mg/ml heparin, the % plaque inhibition was 92%. Similar results were obtained when the gC-deficient HSV-1, Delta gC2-3, was used. In which case, the % plaque inhibition for 62.5 μg/ml and 1 mg/ml heparin were 77% and 86%, respectively.

wild-type HSV-1 = experiment: Penetration assay, wild-type HSV-1 into Vero cells; format: cell-based, herpes simplex virus type 1
Method: (§2) Penetration Assay. The penetration assay was conducted using the method as described in Example with modifications. Confluent Vero cell monolayers in 25 ml tissue culture flasks were chilled to 4° C. for 45 mm. The monolayers were infected with 300 pfu of HSV-1 in 2.5 ml of cold MEM Earle's medium. Attachment was synchronized for 1 h at 4° C. The flasks were washed twice with 4 ml of cold PBS to remove any unbound virus. The monolayers were covered with 5 ml of maintenance medium and shifted to 37° C. […] The flasks were incubated at 37° C. for 90 min, after which the monolayers were washed twice with 4 ml of PBS and covered with 10 ml of 0.8% methylcellulose in maintenance medium. Plaque formation was allowed at 37° C. for 72 h. For the citrate buffer treated group, 3 ml of buffer was added to the monolayers for 1 min. The cells were washed twice with PBS, after which medium was added to allow plaque formation. For the no treatment control group, following medium removal, the monolayers were washed twice with PBS and medium added to allow plaque formation.
Citrate buffer at pH 3 represents the penetration kinetics of HSV into Vero cells. The low pH removes adherent virus particles from the cell surface (i.e., those that have not yet penetrated). At time 20 min, all the wild type virus particles have penetrated and can not be removed by the low pH buffer (Table 6). […] This reduction is less obvious than the heparin treatment. At time 0 min, only 19% of the virus could penetrate and form plaque as compared to 49% in the heparin treatment.

[6] = test system: HSV-1 (acyclovir-sensitive strain, BW-S strain); experiment: Plaque reduction assay (Example 6), HSV-1 BW-S strain on Vero cells; format: cell-based, herpes simplex virus type 1
HSV-1 strain Delta gC2-3 = experiment: Binding experiment: residual infectious virus after incubation with sample, Delta gC2-3; format: cell-based, herpes simplex virus type 1; settings: 2 mg heparin with 10^5 pfu, 36° C., 1 h; water control = 100%
Method: (§3) The mixture was serially diluted in medium and the number of residual infectious virus was determined by the plaque assay. The number of plaque developed in the water treatment control was taken as 100%.

HSV-1 strain #15577 [7] = experiment: Binding competition experiment, strain #15577; format: cell-based, herpes simplex virus type 1; settings: mixed with virus and used immediately
Method: as §1

HSV-1 [8] = experiment: Plaque reduction assay (Example 3), HSV-1 on Vero cells; format: cell-based, herpes simplex virus type 1
HSV-1 strain #15577 [9] = experiment: Binding experiment: residual infectious virus after incubation with sample, strain #15577; format: cell-based, herpes simplex virus type 1; settings: 2 mg heparin with 10^5 pfu, 36° C., 1 h; water control = 100%
Method: as §3

[10] = test system: glycoprotein C-deficient mutant HSV-1; experiment: Penetration assay, gC-deficient HSV-1 mutant into Vero cells; format: cell-based, herpes simplex virus type 1
Method: as §2
However, by 60 min, all the virus particles appeared to have penetrated.

[11] = Tabba et al.; cited from earlier work
[12] = Heparin 1000 μg/ml added at Time 0 min
[13] = Heparin 1000 μg/ml added at Time 10 min
[14] = Heparin 1000 μg/ml added at Time 20 min

Compound: Nc1nc2c(ncn2COCCO)c(=O)[nH]1 [Acyclovir]
- Life Span Extension Rate (HSV-2, Strain no. 333 [1]): 81.2%
- Protection Rate (HSV-2, Strain no. 333 [1]): 78.6%
- Survival (HSV-2, Strain no. 333 [1]): 80%
- No. of death (HSV-2, Strain no. 333 [1]; 30 animals): 6
- No. of survival (HSV-2, Strain no. 333 [1]; 30 animals): 24
- Life Span Extension Rate (HSV-2, Strain no. 333 [1]; listed as acyclovir): 81.3%
- Extent of Skin Pathological Changes EPC (Mean ± SD) (HSV-1, Strain no. SM44; Day 4 (start of treatment)): 3.87 ± 0.12 cm^2
- Inhibition rate IR (HSV-1, Strain no. SM44; Day 4 (start of treatment)): 0%
- Extent of Skin Pathological Changes EPC (Mean ± SD) (HSV-1, Strain no. SM44; Day 5): 3.54 ± 0.22 cm^2
- Inhibition rate IR (HSV-1, Strain no. SM44; Day 5): 11%
- Extent of Skin Pathological Changes EPC (Mean ± SD) (HSV-1, Strain no. SM44; Day 6): 2.77 ± 0.40 cm^2
- Inhibition rate IR (HSV-1, Strain no. SM44; Day 6): 30%
- Extent of Skin Pathological Changes EPC (Mean ± SD) (HSV-1, Strain no. SM44; Day 7): 2.02 ± 0.30 cm^2
- Inhibition rate IR (HSV-1, Strain no. SM44; Day 7): 44%
- Extent of Skin Pathological Changes EPC (Mean ± SD) (HSV-1, Strain no. SM44; Day 8): 1.21 ± 0.38 cm^2
- Inhibition rate IR (HSV-1, Strain no. SM44; Day 8): 63%
- Extent of Skin Pathological Changes EPC (Mean ± SD) (HSV-1, Strain no. SM44; Day 9): 0.82 ± 0.16 cm^2
- Inhibition rate IR (HSV-1, Strain no. SM44; Day 9): 71%
- Extent of Skin Pathological Changes EPC (Mean ± SD) (HSV-1, Strain no. SM44; Day 10): 0.38 ± 0.18 cm^2
- Inhibition rate IR (HSV-1, Strain no. SM44; Day 10): 84%
- Extent of Skin Pathological Changes EPC (Mean ± SD) (HSV-1, Strain no. SM44; Day 11): 0.09 ± 0.19 cm^2
- Inhibition rate IR (HSV-1, Strain no. SM44; Day 11): 96%
- signs of paralysis in lower limbs (HSV-1, Strain no. SM44; cream-treated groups, seen in some animals of the virus control group): not observed
- Therapeutic Rate (HSV-2, Strain no. 333 [2]): 71%
- No. of samples containing HSV-2 After Treatment (HSV-2, Strain no. 333 [2]; 30 vaginal samples): 8
- No. of samples containing HSV-2 Before Treatment (HSV-2, Strain no. 333 [2]; 30 vaginal samples): 30

Compound: O=Cc1cc(O)c(O)c(O)c1 [gallic aldehyde]
- IC50 against HSV-1 (HSV-1 [3]): 12.5 µg/mL (≈ 81.1 µM)

Compound: apolipoprotein A-I: high density serum apolipoprotein A-I
- concentration inhibiting HSV-induced cell fusion (HSV-induced cell fusion): 1 µM

Compound: geponin
- IC50 against HSV-1 (HSV-1 [3]): 25 µg/mL

Compound: heparin
- IC50 [4]: > 1 mg/mL
- % plaque inhibition ([5]; 62.5 μg/ml): 77%
- % plaque inhibition ([5]; 1 mg/ml): 86%
- % Plaques (wild-type HSV-1; [12]): 49%
- % Plaques (wild-type HSV-1; Heparin 1000 μg/ml added at Time 2 min): 57%
- % Plaques (wild-type HSV-1; Heparin 1000 μg/ml added at Time 4 min): 88%
- % Plaques (wild-type HSV-1; Heparin 1000 μg/ml added at Time 6 min): 86%
- % Plaques (wild-type HSV-1; [13]): 100%
- % Plaques (wild-type HSV-1; Heparin 1000 μg/ml added at Time 15 min): 100%
- % Plaques (wild-type HSV-1; [14]): 100%
- anti-HSV-1 IC50 [6]: 300 µg/mL
- original virus still infectious (HSV-1 strain Delta gC2-3): 42%
- % plaque inhibition (HSV-1 strain #15577 [7]; 62.5 μg/ml): 88%
- % plaque inhibition (HSV-1 strain #15577 [7]; 1 mg/ml): 92%
- IC50 (HSV-1 [8]; HSV-1 strain #15577, plaque reduction assay): 750 µg/mL
- IC50 values (HSV-1 [8]; plaque reduction assay, added 1 h after virus, strains 15577 and Delta gC2-3): 750 to 1000 µg/mL
- original virus still infectious (HSV-1 strain #15577 [9]): 30%
- % Plaques [10, 12]: 62%
- % Plaques [10, 13]: 90%
- % Plaques [10, 14]: 100%
- % Plaques ([10]; Heparin 1000 μg/ml added at Time 30 min): 100%
- % Plaques ([10]; Heparin 1000 μg/ml added at Time 40 min): 100%
- % Plaques ([10]; Heparin 1000 μg/ml added at Time 50 min): 84%
- % Plaques ([10]; Heparin 1000 μg/ml added at Time 60 min): 100%
- effects on the penetration of the gC-deficient mutant into Vero cells ([10]; heparin 1000 μg/ml, in words): no apparent effects

Compound: prunellin
- pH in aqueous solution [11]: 7.4
